From patent US20210254272A1, “TEXTILES HAVING ANTIMICROBIAL PROPERTIES” (Livinguard AG, priority 2015, published 2021)

Test: Leaching test: 100 g fabric soaked in 10 liters stagnant distilled water, 3 days (72 hours)
Assay type: physicochemical
Settings: for Leaching of active ingredients / Leaching Test-Leaching of active ingredients: pad process; for Leaching of active ingredients: cured 180° C. 2 min; for Leaching Test-Leaching of active ingredients: 2 min
How it was run: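 Test and control fabrics were soaked together in a closed jar. Leached substances in the water were then determined by standard analytical methods.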

CCCC1COC(Cn2cncn2)(c2ccc(Cl)cc2Cl)O1 (centres unmarked) [Propiconazole, propiconazole]
Leaching of active ingredients (in ppm) (exhaust 80° C., 60 min, dosage 1% o.w.f (test up to 5% o.w.f)): 3 ppm | Leaching of active ingredients (in ppm) (exhaust 80° C., 60 min, dosage 2% o.w.f): 26 ppm | Leaching of active ingredients (in ppm) (exhaust 80° C., 60 min, dosage 3% o.w.f): 40 ppm | Leaching of active ingredients (in ppm) (exhaust 80° C., 60 min, dosage 4% o.w.f): 47 ppm | Leaching of active ingredients (in ppm) (exhaust 80° C., 60 min, dosage 5% o.w.f): 73 ppm | Leaching of active ingredients (in ppm) (exhaust 80 ° C., solution dosage 1% o.w.f, process time 10 min): 38 ppm | Leaching of active ingredients (in ppm) (exhaust 80 ° C., solution dosage 1% o.w.f, process time 20 min): 26 ppm | Leaching of active ingredients (in ppm) (exhaust 80 ° C., solution dosage 1% o.w.f, process time 30 min): 22 ppm | Leaching of active ingredients (in ppm) (exhaust 80 ° C., solution dosage 1% o.w.f, process time 40 min): 15 ppm | Leaching of active ingredients (in ppm) (exhaust 80 ° C., solution dosage 1% o.w.f, process time 50 min): 14 ppm | Leaching of active ingredients (in ppm) (exhaust 80 ° C., solution dosage 1% o.w.f, process time 55 min): 7 ppm | Leaching of active ingredients (in ppm) (exhaust 80 ° C., solution dosage 1% o.w.f, process time 60 min): 3 ppm | Leaching of active ingredients (in ppm) (exhaust 80 ° C., solution dosage 1% o.w.f, process time 70 min): 3 ppm | Leaching of active ingredients (in ppm) (exhaust 80 ° C., solution dosage 1% o.w.f, process time 80 min): 4 ppm | Leaching of active ingredients (in ppm) (exhaust 80 ° C., solution dosage 1% o.w.f, process time 90 min): 7 ppm | limit on the quantity of the agent that can be adhered to the textile in a non-leaching or substantially non-leaching manner (from Experimental examples I.1 and I.4): about 0.25 % o.w.f. | Leaching of active ingredients (mixture 1 gm/lit each): 9 ppm | Leaching of active ingredients (mixture 1 gm/lit each, after Washing): 0.4 ppm | Leaching of active ingredients (mixture 5 gm/lit each): 13 ppm | Leaching of active ingredients (mixture 5 gm/lit each, after Washing): 0.7 ppm | Leaching of active ingredients (mixture 10 gm/lit each): 24 ppm | Leaching of active ingredients (mixture 10 gm/lit each, after Washing): 0.9 ppm | Leaching Test-Leaching of active ingredients (single agent 5 gm/lit, curing 120° C.): 9 ppm | Leaching Test-Leaching of active ingredients (single agent 5 gm/lit, curing 140° C.): 7 ppm | Leaching Test-Leaching of active ingredients (single agent 5 gm/lit, curing 150° C.): 5 ppm | Leaching Test-Leaching of active ingredients (single agent 5 gm/lit, curing 160° C.): 4 ppm | Leaching Test-Leaching of active ingredients (single agent 5 gm/lit, curing 180° C.): 1 ppm | Leaching Test-Leaching of active ingredients (single agent 10 gm/lit, curing 120° C.): 15 ppm | Leaching Test-Leaching of active ingredients (single agent 10 gm/lit, curing 140° C.): 14 ppm | Leaching Test-Leaching of active ingredients (single agent 10 gm/lit, curing 150° C.): 13 ppm | Leaching Test-Leaching of active ingredients (single agent 10 gm/lit, curing 160° C.): 8 ppm | Leaching Test-Leaching of active ingredients (single agent 10 gm/lit, curing 180° C.): 2 ppm | Leaching of active ingredient (in ppm) (solution dosage 0.10% o.w.f, exhaust temperature 40° C., process time 60 min): 0 ppm | Leaching of active ingredient (in ppm) (solution dosage 0.10% o.w.f, exhaust temperature 60° C., process time 60 min): 0 ppm | Leaching of active ingredient (in ppm) (solution dosage 0.10% o.w.f, exhaust temperature 65° C., process time 60 min): 0 ppm | Leaching of active ingredient (in ppm) (solution dosage 0.10% o.w.f, exhaust temperature 70° C., process time 60 min): 0 ppm | Leaching of active ingredient (in ppm) (solution dosage 0.10% o.w.f, exhaust temperature 75° C., process time 60 min): 0 ppm | Leaching of active ingredient (in ppm) (solution dosage 0.10% o.w.f, exhaust temperature 80° C., process time 60 min): 0 ppm | Leaching of active ingredient (in ppm) (solution dosage 0.10% o.w.f, exhaust temperature 85° C., process time 60 min): 1 ppm | Leaching of active ingredient (in ppm) (solution dosage 0.10% o.w.f, exhaust temperature 90° C., process time 60 min): 2 ppm | Leaching of active ingredient (in ppm) (solution dosage 0.10% o.w.f, exhaust temperature 95° C., process time 60 min): 3 ppm | Leaching of active ingredient (in ppm) (solution dosage 0.20% o.w.f, exhaust temperature 40° C., process time 60 min): 0 ppm | Leaching of active ingredient (in ppm) (solution dosage 0.20% o.w.f, exhaust temperature 60° C., process time 60 min): 0 ppm | Leaching of active ingredient (in ppm) (solution dosage 0.20% o.w.f, exhaust temperature 65° C., process time 60 min): 0 ppm | Leaching of active ingredient (in ppm) (solution dosage 0.20% o.w.f, exhaust temperature 70° C., process time 60 min): 0 ppm | Leaching of active ingredient (in ppm) (solution dosage 0.20% o.w.f, exhaust temperature 75° C., process time 60 min): 0 ppm | Leaching of active ingredient (in ppm) (solution dosage 0.20% o.w.f, exhaust temperature 80° C., process time 60 min): 0 ppm | Leaching of active ingredient (in ppm) (solution dosage 0.20% o.w.f, exhaust temperature 85° C., process time 60 min): 2 ppm | Leaching of active ingredient (in ppm) (solution dosage 0.20% o.w.f, exhaust temperature 90° C., process time 60 min): 4 ppm | Leaching of active ingredient (in ppm) (solution dosage 0.20% o.w.f, exhaust temperature 95° C., process time 60 min): 4 ppm | Leaching of active ingredient (in ppm) (solution dosage 0.50% o.w.f, exhaust temperature 40° C., process time 60 min): 0 ppm | Leaching of active ingredient (in ppm) (solution dosage 0.50% o.w.f, exhaust temperature 60° C., process time 60 min): 1 ppm | Leaching of active ingredient (in ppm) (solution dosage 0.50% o.w.f, exhaust temperature 65° C., process time 60 min): 1 ppm | Leaching of active ingredient (in ppm) (solution dosage 0.50% o.w.f, exhaust temperature 70° C., process time 60 min): 1 ppm | Leaching of active ingredient (in ppm) (solution dosage 0.50% o.w.f, exhaust temperature 75° C., process time 60 min): 1 ppm | Leaching of active ingredient (in ppm) (solution dosage 0.50% o.w.f, exhaust temperature 80° C., process time 60 min): 1 ppm | Leaching of active ingredient (in ppm) (solution dosage 0.50% o.w.f, exhaust temperature 85° C., process time 60 min): 3 ppm | Leaching of active ingredient (in ppm) (solution dosage 0.50% o.w.f, exhaust temperature 90° C., process time 60 min): 5 ppm | Leaching of active ingredient (in ppm) (solution dosage 0.50% o.w.f, exhaust temperature 95° C., process time 60 min): 6 ppm | Leaching of active ingredient (in ppm) (solution dosage 0.80% o.w.f, exhaust temperature 40° C., process time 60 min): 0 ppm | Leaching of active ingredient (in ppm) (solution dosage 0.80% o.w.f, exhaust temperature 60° C., process time 60 min): 2 ppm | Leaching of active ingredient (in ppm) (solution dosage 0.80% o.w.f, exhaust temperature 65° C., process time 60 min): 1 ppm | Leaching of active ingredient (in ppm) (solution dosage 0.80% o.w.f, exhaust temperature 70° C., process time 60 min): 2 ppm | Leaching of active ingredient (in ppm) (solution dosage 0.80% o.w.f, exhaust temperature 75° C., process time 60 min): 2 ppm | Leaching of active ingredient (in ppm) (solution dosage 0.80% o.w.f, exhaust temperature 80° C., process time 60 min): 1 ppm | Leaching of active ingredient (in ppm) (solution dosage 0.80% o.w.f, exhaust temperature 85° C., process time 60 min): 4 ppm | Leaching of active ingredient (in ppm) (solution dosage 0.80% o.w.f, exhaust temperature 90° C., process time 60 min): 6 ppm | Leaching of active ingredient (in ppm) (solution dosage 0.80% o.w.f, exhaust temperature 95° C., process time 60 min): 7 ppm | Leaching of active ingredient (in ppm) (solution dosage 1.00% o.w.f, exhaust temperature 40° C., process time 60 min): 0 ppm | Leaching of active ingredient (in ppm) (solution dosage 1.00% o.w.f, exhaust temperature 60° C., process time 60 min): 8 ppm | Leaching of active ingredient (in ppm) (solution dosage 1.00% o.w.f, exhaust temperature 65° C., process time 60 min): 7 ppm | Leaching of active ingredient (in ppm) (solution dosage 1.00% o.w.f, exhaust temperature 70° C., process time 60 min): 4 ppm | Leaching of active ingredient (in ppm) (solution dosage 1.00% o.w.f, exhaust temperature 75° C., process time 60 min): 3 ppm | Leaching of active ingredient (in ppm) (solution dosage 1.00% o.w.f, exhaust temperature 80° C., process time 60 min): 1.5 ppm | Leaching of active ingredient (in ppm) (solution dosage 1.00% o.w.f, exhaust temperature 85° C., process time 60 min): 8 ppm | Leaching of active ingredient (in ppm) (solution dosage 1.00% o.w.f, exhaust temperature 90° C., process time 60 min): 9 ppm | Leaching of active ingredient (in ppm) (solution dosage 1.00% o.w.f, exhaust temperature 95° C., process time 60 min): 9 ppm
